According to US6610725B1, “Fluorinated imidazoline benzodioxane, preparation and therapeutic uses thereof” (Pierre Fabre Medicament, priority 1999, dated 2003):
“Also recorded” adds a separate entry of the source. Structures can show the parent of a compound that is named as a salt.

How the values were obtained:
α1 or α2 receptors = conditions: from J. Med. Chem. publications; cited from earlier work
α2-adrenergic receptors = assay: Inhibition of the hypothermia induced with guanabenz; type: in vivo; conditions: for ED50 inhibition of hypothermia / Range of active doses, inhibition of hypothermia / ED50 normalization of hypothermia / Range of active doses, normalization of hypothermia: i.p.; for Range of active doses, normalization of hypothermia: normalization (return to normal temperature); for Number of doses inducing the inhibition of hypothermia in 100% of the animals: each dose separated by a factor of 4
Experimental: The assessment of the biological activity of the compounds of the invention is also carried out in vivo by studying the inhibition of the hypothermia induced with a central α2-agonist such as guanabenz according to the protocol of S. C. Dilsaver, Pharmacol. Biochem. Behav., 45, 247, 1993.
The inhibitory capacities are expressed as the ED50 which represent the doses producing a significant inhibition of the hypothermia induced with guanabenz on the one hand, and a normalization, that is to say a return to the normal temperature for the animal, before injection of guanabenz on the other hand. These values are obtained using the method of J. T. Litchfield and F. Wilcoxon (J. Pharmacol. Exp. Ther., 96, 99, 1949). The comparison is made between the 2-methoxy compounds, fluorinated in position 5 (dextrorotatory compound of Example 1) and nonfluorinated: (+) RX 821002, and between the 2-ethoxy, fluorinated in position 5 (dextrorotatory compound of Example 2) and nonfluorinated: (+) RX 811059.

[1] = system: memory deficit induced with scopolamine; assay: Memory deficit induced with scopolamine (passive avoidance test); type: in vivo; conditions: rats; active doses over the range from 0.04 to 2.5 mg/kg
Excerpt: In accordance with the cholinergic hypothesis of the phenomena of learning and memory, scopolamine has […] properties in animals and man. Its administration to a healthy person induces certain amnesia symptoms similar to those observed in Alzheimer's disease. It has been proposed that the scopolamine be used as an experimental pharmacological model of this pathology. The similarities between the memory deficits of Alzheimer's disease and those induced with scopolamine in rats have been published (P. Chopin et M. Briley, The effects of raubasine and dihydroergocristine on an […] deficit in passive avoidance learning in rats, J.Pharm.Pharmacol. 42, 375-376, 1990). Scopolamine reduces the capacity for acquisition, memorization and recall in a test of passive avoidance in rats. This involves measuring the reticence, after learning, that the animal has in entering a dark compartment, where it receives a mild electric shock. The administration of scopolamine suppresses this reticence, and the test compounds oppose the effect of scopolamine. The comparison of the products of the present invention is made with the known compound RX 821002, dextrorotatory enantiomer. The experimental protocol is that published by P. Chopin and M. Briley (Effects of four non-cholinergic cognitive enhancers in comparison with tacrine and galanthamine on scopolamine-induced amnesia in rats: Psychopharmacology, 106, 26-30, 1992).

release of noradrenalin = assay: Release of noradrenalin: normetanephrine level in frontal cortex; type: in vivo; conditions: mice, i.p., 0.01 to 2.5 mg/kg, 60 minutes, cortical tissue, HPLC
Experimental: The level of normetanephrine, a noradrenalin metabolite, in the cerebral tissues is used as a measurement of the release of noradrenalin. Wood, P. L. and coll. Pharmacological Rev. 40, 163-187, (1988), and J. Neurochem. 48, 574-579, (1987)). The formation of normetanephrine, by the action of catechol O-methyltransferase takes place on the outside of the noradrenergic neurones and its measurement takes account of variations in the release of noradrenalin. This measurement is performed in the frontal cortex, a region innervated mainly by the locus coeruleus.
The test compound is administered intraperitoneally to the mice, which are sacrificed after 60 minutes by irradiation with microwaves (to avoid any artefactual changes in the metabolite levels). After dissection, normetanephrine is assayed by HPLC on the cortical tissue extracts. At doses of 0.01 to 2.5 mg/kg, the assayed normetanephrine represents a level from 125 to 150% higher with the compound of Example 1, relative to (+) RX 821002, under the same conditions.

Structure (SMILES)	melting point [°C]	ED50 inhibition of hypothermia (α2-adrenergic receptors) [mg/kg]	Range of active doses, inhibition of hypothermia (α2-adrenergic receptors) [µg/kg]	ED50 normalization of hypothermia (α2-adrenergic receptors) [mg/kg]	Range of active doses, normalization of hypothermia (α2-adrenergic receptors) [mg/kg]	Increase in the time taken to enter the dark compartment by the treated animals, relative to those receiving scopolamine alone (% amplitude of the effect) [1]	other results
COc1cc2c(cc1OC)OC(OC)(C1=NCCN1)CO2 (stereo not shown)	–	–	–	–	–	–	Activity relative to unsubstituted idazoxan analog / α2-presynaptic antagonist activity (α1 or α2 receptors): only extremely marginal activity
Fc1cccc2c1OCC(OCc1ccccc1)(C1=NCCN1)O2 (stereo not shown) (as salt: hydrochloride) (hydrate or solvate) [Example 8, 2-(5-Fluoro-2-benzyloxy-1,4-benzodioxan-2-yl)-imidazoline Hydrochloride]	218	–	–	–	–	–	–
CCCOC1(C2=NCCN2)COc2c(F)cccc2O1 (stereo not shown) (as salt: hydrochloride) [Example 3, 2-(5-Fluoro-2-propoxy-1,4-benzodioxan-2-yl)-imidazoline Hydrochloride]	206	–	–	–	–	–	–
CC(C)COC1(C2=NCCN2)COc2c(F)cccc2O1 (stereo not shown) (as salt: hydrochloride) [Example 5, 2-(5-Fluoro-2-isobutoxy-1,4-benzodioxan-2-yl)-imidazoline Hydrochloride]	206	–	–	–	–	–	–
C=CCOC1(C2=NCCN2)COc2c(F)cccc2O1 (stereo not shown) (as salt: hydrochloride) [Example 7, 2-(5-Fluoro-2-allyloxy-1,4-benzodioxan-2-yl)-imidazoline Hydrochloride]	214	–	–	–	–	–	–
CCOC1(C2=NCCN2)COc2c(F)cccc2O1 (stereo not shown) (as salt: salt) [Example 2, 2-(5-Fluoro-2-ethoxy-1,4-benzodioxan-2-yl)-2-imidazoline]	> 260	–	–	–	–	–	–
CCOC1(C2=NCCN2)COc2ccccc2O1 (single isomer, unassigned; (+)) [(+) RX 811059, 2-ethoxy idazoxan]	–	0.08	40 to 10000	0.32	0.16 to 10	–	–
COC1(C2=NCCN2)COc2ccccc2O1 (single isomer, unassigned; (+)) [(+) RX 821002, 2-methoxy idazoxan]	–	0.01	10 to 10000	0.05	0.04 to 2.5	not significantly active; also recorded: non-significant	Number of doses inducing the inhibition of hypothermia in 100% of the animals (α2-adrenergic receptors): 2 doses; Doses normalizing the hypothermia in 100% of the animals (α2-adrenergic receptors; list of single doses): none; ED50 normalization (per os) (α2-adrenergic receptors): 0.56 mg/kg; Range of active doses (per os) normalization (α2-adrenergic receptors): 0.16 to 10 mg/kg; Proportion of the animals in which hypothermia is normalized (maximum reached) (α2-adrenergic receptors; reached at only 2 doses): 80%
COC1(C2=NCCN2)COc2c(F)cccc2O1 (stereo not shown) [Dextrorotatory compound of Example 1, 2-(5-Fluoro-2-methoxy-1,4-benzodioxan-2-yl)-2-imidazoline]	–	0.003	2.5 to 40000	0.02	0.0025 to 10	201%	Number of doses inducing the inhibition of hypothermia in 100% of the animals (α2-adrenergic receptors): 6 doses; Number of doses normalizing the hypothermia in 100% of the animals (α2-adrenergic receptors; in vivo): 3 doses; ED50 normalization (per os) (α2-adrenergic receptors): 0.22 mg/kg; Range of active doses (per os) normalization (α2-adrenergic receptors): 0.04 to 40 mg/kg
CCOC1(C2=NCCN2)COc2c(F)cccc2O1 (stereo not shown) [Dextrorotatory compound of Example 2, 2-(5-Fluoro-2-ethoxy-1,4-benzodioxan-2-yl)-2-imidazoline]	–	0.02	2.5 to 40000	0.16	0.01 to 10	198%	–
COc1cc2c(cc1OC)C(=O)C(CC1CCN(Cc3ccccc3)CC1)C2 (stereo not shown) [Donepezil]	–	–	–	–	–	67%	–
COC1(C2=NCCN2)COc2c(F)cccc2O1 (stereo not shown) [Example 1, 2-(5-Fluoro-2-methoxy-1,4-benzodioxan-2-yl)-2-imidazoline]	–	–	–	–	–	–	Assayed normetanephrine level relative to (+) RX 821002 (release of noradrenalin): 125 to 150 % higher
Nc1c2c(nc3ccccc13)CCCC2 [Tacrine]	–	–	–	–	–	191%	–
